Values joined by “and” are separate entries in the source; they are usually repeats but may differ in a detail not shown here. Equal values may be shown once.
Tests used:
rpsL gene [1] = experiment: rpsL gene mutation rate at the cellular level (E. coli MF101 + pMOL21 cultured with mutagen, Amp/Str plate selection); conditions: for Mutation Rate of rpsL (mean ± SD): E. coli MF101 + pMOL21, mean of 4 experiments; for Mutation Rate of rpsL (single experiment): E. coli MF101 + pMOL21, single replicate; for genotoxicity / mutagenicity in words: NDEA, NDPA at 10 ppm, EB at lower concentrations
Experimental: The mutagenicity detection of nitrosamine compounds was carried out using the rpsL gene on plasmid pMOL21 as a selectable marker. The ribosomal protein S12 encoded by the rpsL gene can form a complex with streptomycin and enhance the ability of streptomycin to bind to 16 S rRNA, thereby preventing the initiation of […]. When the rpsL gene is mutated, the interaction between 16 S rRNA and streptomycin is disrupted, resulting in cell resistance to streptomycin.
We adopted Escherichia coli MF101, whose rpsL gene is mutated, so this strain has streptomycin resistance. The plasmid pMOL21 contains ampicillin as a selection marker and the correct rpsL gene. […] For specific information on strains and plasmids, please refer to [14].
E. coli MF101 + pMOL21 were cultured with different concentrations (10 ppm, 100 ppm, or 1000 ppm) of NDEA or NDPA. Ten hours after growth, the strains were collected and spread on plates containing ampicillin (Amp^+, 50 μg/mL) to determine the total number of transformed cells and spread on plates containing ampicillin and streptomycin (Amp^+, Str^+, 50 μg/mL) to determine the number of colonies with rpsL gene mutations. The mutation rate is the ratio of the number of mutant colonies to the total number of colonies. […] The experimental data and images were statistically analyzed by Origin2018 software.

rpsL gene [2] = experiment: rpsL gene mutation rate in the PCR amplification system (Pfu DNA polymerase, mutagen added directly to the PCR system); type: biochemical, Escherichia coli; conditions: for Mutation Rate of rpsL in PCR (mean ± SD): mean of 4 experiments; for Mutation Rate of rpsL in PCR (single experiment): single replicate
Experimental: The PCR system was as follows: 10 × PCR buffer (Mg^2+) 5 μL, dNTP 2 μL, pMOL21 plasmid template 1 μL, upstream and downstream primers 1 μL, Pfu DNA polymerase 0.5 μL, ddH2O supplemented to […] (nitrosamine compounds were directly added to the PCR system).
The PCR program was as follows: predenaturation at 95 °C for 5 min, denaturation at 94 °C for 30 s, annealing at 55 °C for 30 s, extension at 72 °C for 120 s, 25 cycles, full extension at 72 °C for 10 min, and storage at 16 °C.
The PCR products were recovered and ligated with restriction enzymes (MscI, BamH1), transformed into MF101 strains, plated on ampicillin-containing plates to determine the total number of transformed cells, and plated on ampicillin- and streptomycin-containing plates to identify rpsL gene-mutated colonies.
We measured the mutation rate of mutagen-induced rpsL gene mutations in the PCR system. The mutagen was added directly to the PCR system to determine the mutation rate of the rpsL gene during DNA amplification.

rpsL gene [3] = experiment: rpsL gene mutation rate in the RCA reaction system (phi29 DNA polymerase, mutagen added to the amplification reaction); type: biochemical, Escherichia coli; conditions: for Mutation Rate of rpsL in the RCA reaction (mean ± SD): mean of 4 experiments; for Mutation Rate of rpsL in the RCA reaction (single experiment): single replicate
Experimental: Heat denaturation of samples and annealing reaction system of primers and plasmids: 1 μL of 10 × phi29 DNA polymerase reaction buffer, 2.5 μL of 100 μM random primers, 1 μL of plasmid pMOL21 to be amplified, and 4.3 μL of ddH2O. The above system was heated at 95 °C for 3 min and then placed on ice for 15 min.
Amplification reaction system: 10 mM dNTP 0.5 μL, 100 × BSA 0.2 μL, phi29 DNA polymerase 0.5 μL to the above reaction solution (nitrosamine compounds or EB are added to the amplification reaction system), and then incubated at 30 °C overnight.
Heat-inactivated phi29 DNA polymerase: heat at 65 °C for 10 min.
We then determined the mutation rate of mutagen-induced rpsL gene mutations in the RCA system. In this experiment, we adopted the method of directly adding a mutagen to the RCA amplification reaction solution to provide a direct mutagenic environment for the amplification of the rpsL gene. This method avoids the possibility of affecting the mutagenicity of NDEA, NDPA, or EB during thermal denaturation.

[4] = 100 ppm mutagen in RCA reaction
[5] = 1000 ppm mutagen in RCA reaction

SMILES | Mutation Rate of rpsL (mean ± SD) (rpsL gene [1]; 10 ppm mutagen) | Mutation Rate of rpsL (single experiment) (rpsL gene [1]; 10 ppm mutagen) | Mutation Rate of rpsL (mean ± SD) (rpsL gene [1]; 100 ppm mutagen) | Mutation Rate of rpsL (single experiment) (rpsL gene [1]; 100 ppm mutagen) | Mutation Rate of rpsL (mean ± SD) (rpsL gene [1]; 1000 ppm mutagen) | Mutation Rate of rpsL (single experiment) (rpsL gene [1]; 1000 ppm mutagen) | genotoxicity / mutagenicity in words (rpsL gene [1]) | Mutation Rate of rpsL in PCR (mean ± SD) (rpsL gene [2]; 10 ppm mutagen in PCR system) | Mutation Rate of rpsL in PCR (single experiment) (rpsL gene [2]; 10 ppm mutagen in PCR system) | Mutation Rate of rpsL in PCR (mean ± SD) (rpsL gene [2]; 100 ppm mutagen in PCR system) | Mutation Rate of rpsL in PCR (single experiment) (rpsL gene [2]; 100 ppm mutagen in PCR system) | Mutation Rate of rpsL in PCR (mean ± SD) (rpsL gene [2]; 1000 ppm mutagen in PCR system) | Mutation Rate of rpsL in PCR (single experiment) (rpsL gene [2]; 1000 ppm mutagen in PCR system) | Mutation Rate of rpsL in the RCA reaction (mean ± SD) (rpsL gene [3]; 10 ppm mutagen in RCA reaction) | Mutation Rate of rpsL in the RCA reaction (single experiment) (rpsL gene [3]; 10 ppm mutagen in RCA reaction) | Mutation Rate of rpsL in the RCA reaction (mean ± SD) (rpsL gene [3]; [4]) | Mutation Rate of rpsL in the RCA reaction (single experiment) (rpsL gene [3]; [4]) | Mutation Rate of rpsL in the RCA reaction (mean ± SD) (rpsL gene [3]; [5]) | Mutation Rate of rpsL in the RCA reaction (single experiment) (rpsL gene [3]; [5])
CC[n+]1c(-c2ccccc2)c2cc(N)ccc2c2ccc(N)cc21 [EB, ethidium bromide, reference compound] | 3.71 10^−6 and 3.71 ± 0.502 10^−6 | 3.65 10^−6 and 4.38 10^−6 and 3.64 10^−6 and 3.16 10^−6 | 5.78 10^−6 and 5.78 ± 0.728 10^−6 | 6.50 10^−6 and 6.05 10^−6 and 4.78 10^−6 and 5.79 10^−6 | 7.87 10^−6 and 7.87 ± 1.842 10^−6 | 9.82 10^−6 and 6.71 10^−6 and 5.94 10^−6 and 9.01 10^−6 | strong mutagenicity | 4.06 10^−6 and 4.06 ± 0.471 10^−6 | 4.23 10^−6 and 4.47 10^−6 and 4.15 10^−6 and 3.38 10^−6 | 6.01 10^−6 and 6.01 ± 1.319 10^−6 | 5.99 10^−6 and 7.69 10^−6 and 4.47 10^−6 and 5.88 10^−6 | 10.35 10^−6 and 10.35 ± 1.143 10^−6 | 11.98 10^−6 and 9.32 10^−6 and 10.15 10^−6 and 9.94 10^−6 | 3.81 10^−6 and 3.81 ± 0.335 10^−6 | 3.62 10^−6 and 4.31 10^−6 and 3.69 10^−6 | 6.38 10^−6 and 6.38 ± 0.915 10^−6 | 7.26 10^−6 and 6.66 10^−6 and 5.10 10^−6 and 6.49 10^−6 | 7.35 10^−6 and 7.35 ± 2.615 10^−6 | 6.86 10^−6 and 4.07 10^−6 and 10.34 10^−6 and 8.11 10^−6
CCN(CC)N=O [NDEA, N-diethylnitrosamine] | 2.42 10^−6 and 2.42 ± 0.717 10^−6 | 1.44 10^−6 and 2.34 10^−6 and 2.95 10^−6 and 2.96 10^−6 | 3.76 10^−6 and 3.76 ± 0.852 10^−6 | 3.32 10^−6 and 2.81 10^−6 and 4.23 10^−6 and 4.69 10^−6 | 4.82 10^−6 and 4.82 ± 1.738 10^−6 | 2.89 10^−6 and 3.85 10^−6 and 6.02 10^−6 and 6.54 10^−6 | high genotoxicity | 2.83 10^−6 and 2.83 ± 1.197 10^−6 | 1.28 10^−6 and 2.65 10^−6 and 4.11 10^−6 and 3.30 10^−6 | 4.51 10^−6 and 4.51 ± 1.314 10^−6 | 3.70 10^−6 and 3.09 10^−6 and 5.47 10^−6 and 5.77 10^−6 | 5.02 10^−6 and 5.02 ± 1.890 10^−6 | 3.16 10^−6 and 3.68 10^−6 and 6.23 10^−6 and 7.03 10^−6 | 2.49 10^−6 and 2.49 ± 0.692 10^−6 | 1.79 10^−6 and 2.02 10^−6 and 3.20 10^−6 and 2.96 10^−6 | 3.62 10^−6 and 3.62 ± 0.316 10^−6 | 3.47 10^−6 and 3.38 10^−6 and 3.55 10^−6 and 4.08 10^−6 | 5.54 10^−6 and 5.54 ± 2.444 10^−6 | 3.14 10^−6 and 3.96 10^−6 and 6.59 10^−6 and 8.46 10^−6
CCCN(CCC)N=O [NDPA, N-dipropylnitrosamine] | 2.67 10^−6 and 2.67 ± 0.909 10^−6 | 2.34 10^−6 and 1.70 10^−6 and 2.80 10^−6 and 3.86 10^−6 | 4.75 10^−6 and 4.75 ± 1.417 10^−6 | 5.72 10^−6 and 2.66 10^−6 and 5.09 10^−6 and 5.53 10^−6 | 5.14 10^−6 and 5.14 ± 1.433 10^−6 | 7.05 10^−6 and 4.20 10^−6 and 5.41 10^−6 and 3.89 10^−6 | high genotoxicity | 2.93 10^−6 and 2.93 ± 1.430 10^−6 | 1.83 10^−6 and 1.92 10^−6 and 3.05 10^−6 and 4.91 10^−6 | 4.98 10^−6 and 4.98 ± 1.330 10^−6 | 6.16 10^−6 and 3.08 10^−6 and 5.45 10^−6 and 5.21 10^−6 | 6.85 10^−6 and 6.85 ± 1.316 10^−6 | 7.72 10^−6 and 8.12 10^−6 and 6.32 10^−6 and 5.25 10^−6 | 2.98 10^−6 and 2.98 ± 0.585 10^−6 | 2.18 10^−6 and 3.59 10^−6 and 3.05 10^−6 and 3.10 10^−6 | 5.59 10^−6 and 5.59 ± 2.287 10^−6 | 4.90 10^−6 and 3.85 10^−6 and 8.96 10^−6 and 4.67 10^−6 | 6.2 10^−6 and 6.20 ± 1.110 10^−6 | 7.78 10^−6 and 5.18 10^−6 and 5.96 10^−6 and 5.87 10^−6
